Source: US7094761B2, “Methods and compounds for prevention and treatment of elevated intraocular pressure and related conditions” (Theratechnologies Inc., priority 2002, dated 2006)

Test system: intraocular pressure in piglets
Conditions: for IC50: pig, in vivo; for effect on basal intraocular pressure: piglet, peptide in saline applied topically as drops, monitored for 15 min
Protocol: Method: Newborn pigs (1–3 days old) were anesthetized with 1.5% halothane for tracheostomy and catheterization of the right femoral vein for drug administration. Animals were ventilated by means of a Harvard small animal respirator with a gas mixture of 25% O2 and 75% N2. Halothane was discontinued after surgery and immediately thereafter the animals were sedated with Alpha-chloralose (50 mg/kg i.v.) and paralyzed with pancuronium (0.1 mg/kg i.v.). Animals were placed under radiant warmer to keep their body temperature at 37° C. A butterfly needle (24G) is inserted into the anterior chamber of both eyes and connected to a Statham pressure transducer connected to a Gould multichannel recorder. Intraocular pressure is then allowed to stabilize for 15 minutes. […] The intraocular pressure was monitored for 15 minutes at which time a maximal effect was observed.
Peptides dissolved in saline were applied to the eye after 15 min of stabilization of intraocular pressure and changes in pressure were monitored for 15 min. The deviation (negative for hypotension) was plotted as a function of time (min).
The experiments were done as above, except that intraocular pressure was plotted versus the dose of peptide used.

Row | Compound | IC50 [nM] | effect on basal intraocular pressure
1 | CC[C@H](C)[C@H](N)C(=O)N[C@@H](Cc1ccccc1)C(=O)N[C@@H](CC(=O)O)C(=O)N[C@@H](CO)C(=O)N[C@H](C(=O)N[C@@H](CCC(=O)O)C(=O)N[C@@H](CS)C(=O)N[C@@H](Cc1c[nH]c2ccccc12)C(=O)O)[C@@H](C)O [Peptide 1405, NH2-Ile Phe Asp Ser Thr Gln Cys Trp-OH] | 342 | produced a decrease in ocular pressure
2 | H-HIICSPLR-OH [Peptide 1402, NH2-His Ile Ile Cys Ser Pro Leu Arg-OH] | 86.4 | produced a decrease in ocular pressure
3 | NH2-Phe Ser Leu Thr Gln Lys Tyr Cys-OH (H-FSLTQKYC-OH) [Peptide 1401] |  | produced a decrease in ocular pressure
